How the values were obtained:
Experiment in all cases: Enzymatic activity of PI3K isoforms, TR-FRET assay (PIP3 formation)
Format in all cases: biochemical
[1] = target: PI3Kβ (Homo sapiens (Human), UniProt P42338)
Protocol: (§1) Enzymatic activity of the class I PI3K isoforms was measured using a time-resolved fluorescence resonance energy transfer (TR-FRET) assay that monitors formation of the product 3,4,5-inositol triphosphate molecule (PIP3), as it competes with fluorescently labeled PIP3 for binding to the GRP-1 pleckstrin homology domain protein. An increase in […] product results in a decrease in TR-FRET signal as the labeled fluorophore is displaced from the GRP-1 protein binding site.
(§2) Class I PI3K isoforms were expressed and purified as heterodimeric recombinant proteins. All assay reagents and buffers for the TR-FRET assay were purchased from Millipore.
(§3) IC50 are reported in units of nM.

[2] = target: PI3Kγ (Homo sapiens (Human), UniProt P48736)
Protocol: as §1, §2, §3

[3] = target: PI3Kα (Homo sapiens (Human), UniProt P42336); details: bound given in uM
Summary of the method: (§4)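 Heterodimeric recombinant class I PI3K; PIP3 product displaces labeled PIP3 from GRP-1 PH domain, lowering TR-FRET. Reaction 30 min at 25° C, stopped with 10 mM EDTA, 10 nM labeled-PIP3, 35 nM Eu-GRP-1. Read Ex 340 nm, Em 615/665 nm; IC50 in nM.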

[4] = target: PI3Kδ (Homo sapiens (Human), UniProt O00329); details: bound given in nM
Summary of the method: as §4

Sequence of PI3Kβ (P42338 whole entry, the tested form may be a part, canonical isoform): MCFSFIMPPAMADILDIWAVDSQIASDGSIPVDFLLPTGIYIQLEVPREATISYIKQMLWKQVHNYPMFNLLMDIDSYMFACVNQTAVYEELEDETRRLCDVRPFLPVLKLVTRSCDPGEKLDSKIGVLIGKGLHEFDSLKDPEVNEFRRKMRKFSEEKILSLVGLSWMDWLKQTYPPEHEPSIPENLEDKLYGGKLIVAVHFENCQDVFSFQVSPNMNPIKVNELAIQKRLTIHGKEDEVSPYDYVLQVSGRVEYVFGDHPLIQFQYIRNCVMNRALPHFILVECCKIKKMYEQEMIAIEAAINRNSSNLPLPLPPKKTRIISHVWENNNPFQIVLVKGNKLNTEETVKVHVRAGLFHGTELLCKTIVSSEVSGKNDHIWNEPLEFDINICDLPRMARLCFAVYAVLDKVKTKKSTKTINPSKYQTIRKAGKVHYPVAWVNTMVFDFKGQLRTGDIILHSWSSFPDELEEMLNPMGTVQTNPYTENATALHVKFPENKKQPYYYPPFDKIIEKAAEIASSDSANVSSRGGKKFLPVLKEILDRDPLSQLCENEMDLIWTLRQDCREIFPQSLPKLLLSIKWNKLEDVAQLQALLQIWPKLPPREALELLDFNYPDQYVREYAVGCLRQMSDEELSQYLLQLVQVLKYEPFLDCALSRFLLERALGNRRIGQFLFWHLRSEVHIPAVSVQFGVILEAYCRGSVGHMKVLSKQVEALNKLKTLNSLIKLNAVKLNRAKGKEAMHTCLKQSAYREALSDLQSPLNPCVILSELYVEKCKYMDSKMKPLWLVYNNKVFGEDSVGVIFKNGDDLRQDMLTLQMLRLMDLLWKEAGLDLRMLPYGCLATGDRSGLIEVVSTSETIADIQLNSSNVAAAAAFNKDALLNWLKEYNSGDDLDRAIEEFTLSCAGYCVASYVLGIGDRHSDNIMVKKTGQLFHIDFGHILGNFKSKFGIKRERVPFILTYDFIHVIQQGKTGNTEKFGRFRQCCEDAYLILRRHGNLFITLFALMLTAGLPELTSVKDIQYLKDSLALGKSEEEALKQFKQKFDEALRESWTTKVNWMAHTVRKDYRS
Sequence of PI3Kβ (P27986 whole entry partner, the tested form may be a part, canonical isoform): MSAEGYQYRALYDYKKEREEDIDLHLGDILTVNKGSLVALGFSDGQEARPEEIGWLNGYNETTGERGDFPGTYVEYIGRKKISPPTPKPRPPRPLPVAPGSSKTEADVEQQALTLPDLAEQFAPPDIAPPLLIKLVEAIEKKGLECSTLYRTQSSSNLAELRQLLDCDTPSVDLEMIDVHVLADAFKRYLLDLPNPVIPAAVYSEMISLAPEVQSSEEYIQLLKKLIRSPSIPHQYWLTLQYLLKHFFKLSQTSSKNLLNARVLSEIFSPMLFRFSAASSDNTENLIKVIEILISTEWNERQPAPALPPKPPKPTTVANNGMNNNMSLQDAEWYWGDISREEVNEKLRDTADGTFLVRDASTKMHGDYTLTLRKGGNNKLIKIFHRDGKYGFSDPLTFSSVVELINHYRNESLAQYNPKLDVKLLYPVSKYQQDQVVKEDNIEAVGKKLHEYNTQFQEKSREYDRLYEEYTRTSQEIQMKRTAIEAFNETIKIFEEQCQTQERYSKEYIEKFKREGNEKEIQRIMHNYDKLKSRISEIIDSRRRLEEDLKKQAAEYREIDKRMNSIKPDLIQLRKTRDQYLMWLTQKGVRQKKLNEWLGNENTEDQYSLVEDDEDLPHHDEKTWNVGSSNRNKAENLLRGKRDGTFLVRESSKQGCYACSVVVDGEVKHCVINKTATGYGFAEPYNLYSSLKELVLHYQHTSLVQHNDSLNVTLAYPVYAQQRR
Sequence of PI3Kδ (O00329 whole entry): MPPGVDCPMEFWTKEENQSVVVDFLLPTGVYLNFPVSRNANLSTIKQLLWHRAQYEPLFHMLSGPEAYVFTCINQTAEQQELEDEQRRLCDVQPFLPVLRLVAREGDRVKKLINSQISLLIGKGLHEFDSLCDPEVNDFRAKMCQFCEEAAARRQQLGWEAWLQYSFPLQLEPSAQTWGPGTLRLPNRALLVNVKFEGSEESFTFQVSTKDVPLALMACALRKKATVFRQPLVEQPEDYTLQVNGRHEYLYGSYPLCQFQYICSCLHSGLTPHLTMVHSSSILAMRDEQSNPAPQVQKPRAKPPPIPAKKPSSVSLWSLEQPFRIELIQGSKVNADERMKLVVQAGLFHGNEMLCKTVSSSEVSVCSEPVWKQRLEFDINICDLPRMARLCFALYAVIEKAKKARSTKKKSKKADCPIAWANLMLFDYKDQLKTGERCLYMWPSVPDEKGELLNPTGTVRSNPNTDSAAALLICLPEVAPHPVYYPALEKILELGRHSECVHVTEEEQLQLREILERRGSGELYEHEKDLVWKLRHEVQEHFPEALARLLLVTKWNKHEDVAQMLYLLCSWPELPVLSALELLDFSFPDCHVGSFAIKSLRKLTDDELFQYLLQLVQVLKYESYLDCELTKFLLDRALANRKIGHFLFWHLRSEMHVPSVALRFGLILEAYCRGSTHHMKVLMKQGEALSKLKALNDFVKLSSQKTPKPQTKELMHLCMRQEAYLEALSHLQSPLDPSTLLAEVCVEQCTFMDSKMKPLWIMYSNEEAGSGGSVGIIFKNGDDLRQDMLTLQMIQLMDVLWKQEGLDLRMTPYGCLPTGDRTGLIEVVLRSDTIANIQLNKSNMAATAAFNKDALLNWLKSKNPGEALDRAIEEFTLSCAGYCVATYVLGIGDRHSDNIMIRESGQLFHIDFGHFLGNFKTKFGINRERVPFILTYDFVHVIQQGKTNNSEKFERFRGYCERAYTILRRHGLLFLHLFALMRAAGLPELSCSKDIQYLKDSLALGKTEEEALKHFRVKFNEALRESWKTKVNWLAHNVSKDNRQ
Sequence of PI3Kδ (P27986 whole entry partner): as the sequence (P27986 whole entry partner, the tested form may be a part, canonical isoform) above
Sequence of PI3Kα (P42336 whole entry, the tested form may be a part): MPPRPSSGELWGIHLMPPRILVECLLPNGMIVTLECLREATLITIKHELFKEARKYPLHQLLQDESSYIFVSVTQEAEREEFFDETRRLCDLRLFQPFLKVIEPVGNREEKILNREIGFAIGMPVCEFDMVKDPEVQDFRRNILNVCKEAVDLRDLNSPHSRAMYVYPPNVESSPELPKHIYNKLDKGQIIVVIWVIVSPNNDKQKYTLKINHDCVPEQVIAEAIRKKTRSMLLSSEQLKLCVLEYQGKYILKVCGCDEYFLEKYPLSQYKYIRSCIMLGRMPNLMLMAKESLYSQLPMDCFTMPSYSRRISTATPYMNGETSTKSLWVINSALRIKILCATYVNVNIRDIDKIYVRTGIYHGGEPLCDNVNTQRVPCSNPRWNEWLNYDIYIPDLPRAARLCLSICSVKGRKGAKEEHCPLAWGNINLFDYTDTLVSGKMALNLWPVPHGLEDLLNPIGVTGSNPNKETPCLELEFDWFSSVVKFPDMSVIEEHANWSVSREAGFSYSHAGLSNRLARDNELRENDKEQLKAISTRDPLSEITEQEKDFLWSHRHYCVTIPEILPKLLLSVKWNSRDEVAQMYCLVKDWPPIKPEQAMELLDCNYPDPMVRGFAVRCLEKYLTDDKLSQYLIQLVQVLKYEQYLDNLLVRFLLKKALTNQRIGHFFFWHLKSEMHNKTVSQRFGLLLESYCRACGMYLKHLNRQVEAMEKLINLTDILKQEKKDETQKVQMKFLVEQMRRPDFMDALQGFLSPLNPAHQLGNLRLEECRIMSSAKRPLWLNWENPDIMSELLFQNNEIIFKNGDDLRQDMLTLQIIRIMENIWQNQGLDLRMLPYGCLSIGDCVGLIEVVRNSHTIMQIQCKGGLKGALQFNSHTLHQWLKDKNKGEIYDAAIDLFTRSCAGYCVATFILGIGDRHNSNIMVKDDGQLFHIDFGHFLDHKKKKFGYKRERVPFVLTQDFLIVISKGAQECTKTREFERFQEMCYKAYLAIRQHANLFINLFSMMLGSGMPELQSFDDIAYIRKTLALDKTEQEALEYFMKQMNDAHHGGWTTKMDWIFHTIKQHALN
Sequence of PI3Kα (P27986 whole entry partner, the tested form may be a part): as the sequence (P27986 whole entry partner, the tested form may be a part, canonical isoform) above

Compound	IC50 ([1]; bound given in uM)	IC50 ([2]; bound given in uM)	IC50 [3]	IC50 [4]	IC50 ([1]; bound given in nM)	IC50 ([2]; bound given in nM)
C[C@H](Nc1ncnc(N)c1C#Cc1ccc(F)cn1)c1nc2cccc(Cl)c2c(=O)n1-c1cc(F)cc(F)c1 (single isomer, unassigned) [Compound 9a]	> 1 µM	> 1 µM	> 1 µM	< 100 nM	–	–
COc1cccc(-n2c([C@H](C)Nc3ncnc(N)c3C#Cc3ncccc3F)nc3cccc(Cl)c3c2=O)c1C [81-1a]	> 1 µM	> 1 µM	> 1 µM	< 100 nM	–	–
COc1cccc(-n2c([C@H](C)Nc3ncnc(N)c3C#Cc3ncccc3F)nc3cccc(Cl)c3c2=O)c1C [81-2a]	> 1 µM	> 1 µM	> 1 µM	< 100 nM	–	–
COC[C@@H](Nc1ncnc(N)c1C#Cc1ccc(F)cn1)c1nc2cccc(Cl)c2c(=O)n1-c1cc(F)cc(F)c1 [146b]	> 1 µM	> 1 µM	> 1 µM	< 100 nM	–	–
C[C@H](Nc1ncnc(N)c1C#Cc1ccc(F)cn1)c1nc2c(F)ccc(F)c2c(=O)n1-c1cc(F)cc(F)c1 [Compound 1a, (S)-2-(1-((6-amino-5-((5-fluoropyridin-2-yl)ethynyl)pyrimidin-4-yl)amino)ethyl)-3-(3,5-difluorophenyl)-5,8-difluoroquinazolin-4(3H)-one]	> 1 µM	> 1 µM	> 1 µM	< 100 nM	–	–
C[C@H](Nc1ncnc(N)c1C#Cc1ccc(F)cn1)c1nc2c(F)cccc2c(=O)n1-c1cc(F)cc(F)c1 [Compound 2a, (S)-2-(1-((6-amino-5-((5-fluoropyridin-2-yl)ethynyl)pyrimidin-4-yl)amino)ethyl)-3-(3,5-difluorophenyl)-8-fluoroquinazolin-4(3H)-one]	> 1 µM	> 1 µM	> 1 µM	< 100 nM	–	–
C[C@H](Nc1ncnc(N)c1C#Cc1ccc(F)cn1)c1nc2c(Cl)cccc2c(=O)n1-c1ccccc1 [Compound 5a, (S)-2-(1-(6-amino-5-((5-fluoropyridin-2-yl)ethynyl)pyrimidin-4-ylamino)ethyl)-8-chloro-3-phenylquinazolin-4(3H)-one]	> 1 µM	> 1 µM	> 1 µM	< 100 nM	–	–
C[C@H](Nc1ncnc(N)c1C#Cc1ccc(F)cn1)c1nc2cccc(F)c2c(=O)n1-c1cc(F)cc(F)c1 [Compound 7a, (S)-2-(1-(6-amino-5-((5-fluoropyridin-2-yl)ethynyl)pyrimidin-4-ylamino)ethyl)-3-(3,5-difluorophenyl)-5-fluoroquinazolin-4(3H)-one]	> 1 µM	> 1 µM	> 1 µM	< 100 nM	–	–
C[C@H](Nc1ncnc(N)c1C#Cc1cccnn1)c1nc2cccc(Cl)c2c(=O)n1-c1ccccc1 [Compound 14a, (S)-2-(1-(6-amino-5-(pyridazin-3-ylethynyl)pyrimidin-4-ylamino)ethyl)-5-chloro-3-phenylquinazolin-4(3H)-one]	> 1 µM	> 1 µM	> 1 µM	–	–	–
C[C@H](Nc1ncnc(N)c1C#Cc1ccc(OC(F)(F)F)cc1)c1nc2cccc(Cl)c2c(=O)n1-c1cc(F)cc(F)c1 [Compound 26a, (S)-2-(1-(6-amino-5-((4-(trifluoromethoxy)phenyl)ethynyl)pyrimidin-4-ylamino)ethyl)-5-chloro-3-(3,5-difluorophenyl)quinazolin-4(3H)-one]	> 1 µM	> 1 µM	> 1 µM	–	–	–
Nc1ncnc(N2CCCC[C@H]2c2nc3cccc(Cl)c3c(=O)n2-c2ccccc2)c1C#Cc1ccccn1 [Compound 36a, (S)-2-(1-(6-amino-5-(pyridin-2-ylethynyl)pyrimidin-4-yl)piperidin-2-yl)-5-chloro-3-phenylquinazolin-4(3H)-one]	> 1 µM	> 1 µM	> 1 µM	–	–	–
C[C@H](Nc1ncnc(N)c1C#Cc1ccccn1)c1nc2cccc(Cl)c2c(=O)n1-c1cccc(C(N)=O)c1 [Compound 38a, (S)-3-(2-(1-(6-amino-5-(pyridin-2-ylethynyl)pyrimidin-4-ylamino)ethyl)-5-chloro-4-oxoquinazolin-3(4H)-yl)benzamide]	–	> 1 µM	–	< 100 nM	< 0.1 µM	–
C[C@H](Nc1ncnc(N)c1C#Cc1ccc2nc(N)sc2c1)c1nc2cccc(Cl)c2c(=O)n1-c1ccccc1 [Compound 46a, (S)-2-(1-(6-amino-5-((2-aminobenzo [d]thiazol-6-yl)ethynyl)pyrimidin-4-ylamino)ethyl)-5-chloro-3-phenylquinazolin-4(3H)-one]	–	–	–	< 100 nM	< 0.1 µM	< 0.1 µM
C[C@H](Nc1ncnc(N)c1C#Cc1cn[nH]c1)c1nc2cccc(Cl)c2c(=O)n1-c1ccccc1 [Compound 49a, (S)-2-(1-(5-((1H-pyrazol-4-yl)ethynyl)-6-aminopyrimidin-4-ylamino)ethyl)-5-chloro-3-phenylquinazolin-4(3H)-one]	–	–	–	< 100 nM	< 0.1 µM	< 0.1 µM
C[C@H](Nc1ncnc(N)c1C#Cc1ccccc1)c1nc2cccc(Cl)c2c(=O)n1-c1ccccc1 [Compound 51a, (S)-2-(1-(6-amino-5-(phenylethynyl)pyrimidin-4-ylamino)ethyl)-5-chloro-3-phenylquinazolin-4(3H)-one]	–	–	–	< 100 nM	< 0.1 µM	< 0.1 µM
C[C@H](Nc1ncnc(N)c1C#Cc1ccc(F)cn1)c1nc2cccc(Cl)c2c(=O)n1-c1cccc(S(C)(=O)=O)c1 [Compound 58a, (S)-2-(1-((6-amino-5-((5-fluoropyridin-2-yl)ethynyl)pyrimidin-4-yl)amino)ethyl)-5-chloro-3-(3-(methylsulfonyl)phenyl)quinazolin-4(3H)-one]	> 1 µM	> 1 µM	> 1 µM	–	–	–
C[C@H](Nc1ncnc(N)c1C#Cc1ccc(F)cn1)c1nc2cccc(Cl)c2c(=O)n1-c1cccc(C(C)(C)C)c1 [Compound 59a, (S)-2-(1-((6-amino-5-((5-fluoropyridin-2-yl)ethynyl)pyrimidin-4-yl)amino)ethyl)-3-(3-(tert-butyl)phenyl)-5-chloroquinazolin-4(3H)-one]	> 1 µM	> 1 µM	> 1 µM	–	–	–
CC(C)OC(=O)c1ccc(C#Cc2c(N)ncnc2N[C@@H](C)c2nc3cccc(Cl)c3c(=O)n2-c2ccccc2)nc1 [Compound 137a, (S)-isopropyl 6-((4-amino-6-((1-(5-chloro-4-oxo-3-phenyl-3,4-dihydroquinazolin-2-yl)ethyl)amino)pyrimidin-5-yl)ethynyl)nicotinate]	> 1 µM	> 1 µM	> 1 µM	–	–	–
C[C@H](Nc1ncnc(N)c1C#Cc1ncccc1C(F)(F)F)c1nc2cccc(Cl)c2c(=O)n1-c1ccccc1 [Compound 142a, (S)-2-(1-((6-amino-5-((3-(trifluoromethyl)pyridin-2-yl)ethynyl)pyrimidin-4-yl)amino)ethyl)-5-chloro-3-phenylquinazolin-4(3H)-one]	–	–	> 1 µM	< 100 nM	< 0.1 µM	–
Cc1cccnc1C#Cc1c(N)ncnc1N[C@@H](C)c1nc2cccc(Cl)c2c(=O)n1-c1ccccc1 [Compound 143a, (S)-2-(1-((6-amino-5-((3-methylpyridin-2-yl)ethynyl)pyrimidin-4-yl)amino)ethyl)-5-chloro-3-phenylquinazolin-4(3H)-one]	–	–	> 1 µM	< 100 nM	< 0.1 µM	–
C[C@H](Nc1ncnc(N)c1C#Cc1cc(CO)ccn1)c1nc2cccc(Cl)c2c(=O)n1-c1ccccc1 [Compound 154a, (S)-2-(1-((6-amino-5-((4-(hydroxymethyl)pyridin-2-yl)ethynyl)pyrimidin-4-yl)amino)ethyl)-5-chloro-3-phenylquinazolin-4(3H)-one]	–	–	–	< 100 nM	< 0.1 µM	< 0.1 µM
C[C@H](Nc1ncnc(N)c1C#Cc1cccc(CO)n1)c1nc2cccc(Cl)c2c(=O)n1-c1ccccc1 [Compound 155a, (S)-2-(1-((6-amino-5-((6-(hydroxymethyl)pyridin-2-yl)ethynyl)pyrimidin-4-yl)amino)ethyl)-5-chloro-3-phenylquinazolin-4(3H)-one]	–	–	–	< 100 nM	> 0.001 µM	< 0.1 µM
CC(O)c1cccc(C#Cc2c(N)ncnc2N[C@@H](C)c2nc3cccc(Cl)c3c(=O)n2-c2ccccc2)n1 (stereo partly drawn) [Compound 157a, 2-((1S)-1-((6-amino-5-((6-(1-hydroxyethyl)pyridin-2-yl)ethynyl)pyrimidin-4-yl)amino)ethyl)-5-chloro-3-phenylquinazolin-4(3H)-one]	–	–	> 1 µM	< 100 nM	< 0.1 µM	–
C[C@H](Nc1ncnc(N)c1C#Cc1cc(C(=O)O)ccn1)c1nc2cccc(Cl)c2c(=O)n1-c1ccccc1 [Compound 160a, (S)-2-((4-amino-6-((1-(5-chloro-4-oxo-3-phenyl-3,4-dihydroquinazolin-2-yl)ethyl)amino)pyrimidin-5-yl)ethynyl)isonicotinic acid]	–	> 1 µM	–	< 100 nM	< 0.1 µM	–
Cc1ccc(C#Cc2c(N)ncnc2N[C@@H](C)c2nc3cccc(Cl)c3c(=O)n2-c2cc(F)cc(F)c2)nc1 [Compound 164a, (S)-2-(1-((6-amino-5-((5-methylpyridin-2-yl)ethynyl)pyrimidin-4-yl)amino)ethyl)-5-chloro-3-(3,5-difluorophenyl)quinazolin-4(3H)-one]	> 1 µM	–	> 1 µM	< 100 nM	–	–

Reference: patent publication US9266878B2, “Phosphatidylinositol 3-kinase inhibitors” (Gilead Calistoga LLC, priority 2012, dated 2016)
